Key:
[1] = system: mThyl-hSNCA transgenic mice; assay: mThyl-hSNCA transgenic mice; assay type: in vivo, mouse; conditions: TZ 0.03 mg/kg oral from 3 to 15 months old
Source text: FIG. 5. TZ improves TH levels and motor performance in genetic models of PD. A-E) Wild-type (w^1118) and PINK1^5 flies received TZ or vehicle for 10 days beginning on the first day after eclosion. Day 10 assays included: (A) Example of wing posture defect and percentage of w^1118 and PINK1^5 flies with wing posture defects. N=6, with 80 flies for each treatment in each trial. (B,C) Example of TH western blot (B) and quantification of TH (C). N=5, with 40 fly heads for each treatment in each trial. (D) ATP content in brains (relative to w^1118). N=3, with 200 fly heads for each treatment in each trial. (E) Climbing behavior. N=3, with 100 flies for each treatment in each trial. F) Climbing behavior of LRRK^ex1 male flies. N=6, with 100 flies for each treatment in each trial. […] (I,J) Quantification of α-synuclein in striatum and SNc. […]
The rotarod test was carried out using an automated rotarod (E103, UGO BASILE). […] The latency to fall was recorded for a maximum recording time of 600 seconds. The behavior was monitored by a video camera.
This test was carried out by leaving a pole in the cage where the mice were housed. […] The time that the mouse took to turn his head from upward to downward (Time: Turn) and the time the mouse took to reach the floor with his forepaws (Time: Locomotion Activity) were recorded. Each mouse was tested three times with 5 min. intervals, and the average time was quantified. […]

LRRK^ex1 male flies = assay: LRRK^ex1 fly genetic model of PD; assay type: in vivo, Drosophila; conditions: TZ 1 μM for 10 days
Source text: FIG. 5. TZ improves TH levels and motor performance in genetic models of PD. A-E) Wild-type (w^1118) and PINK1^5 flies received TZ or vehicle for 10 days beginning on the first day after eclosion. Day 10 assays included: (A) Example of wing posture defect and percentage of w^1118 and PINK1^5 flies with wing posture defects. N=6, with 80 flies for each treatment in each trial. (B,C) Example of TH western blot (B) and quantification of TH (C). N=5, with 40 fly heads for each treatment in each trial. (D) ATP content in brains (relative to w^1118). N=3, with 200 fly heads for each treatment in each trial. (E) Climbing behavior. N=3, with 100 flies for each treatment in each trial. F) Climbing behavior of LRRK^ex1 male flies. N=6, with 100 flies for each treatment in each trial. G-K) TZ delivery to mThyl-hSNCA transgenic mice. (G) Schematic for experiments in panels H-K. (H) Example of western blot of α-synuclein in striatum and SNc. (I,J) Quantification of α-synuclein in striatum and SNc. N=5. (K) Duration that mice remained on an accelerating rotarod. N=5. Data are from individual groups of flies (A-F) and individual mice (I-K). Bars and whiskers indicate mean±SEM. Blue indicates controls and red indicates TZ treatment. In the figures, *p<0.05, **p<0.01, ***p<0.001. […]
LRRK^ex1 male flies were treated with TZ (1 μM) for 10 days after eclosion. The […] were recorded after 10 days of treatment.

Structure (SMILES): COc1cc2nc(N3CCN(C(=O)C4CCCO4)CC3)nc(N)c2cc1OC (centres unmarked) [TZ, terazosin]
- human α-synuclein in striatum and SNc and motor performance on rotarod and pole test [1]: partially prevented
- motor deficits (climbing behavior) (LRRK^ex1 male flies): attenuated

Source: patent publication US20220000871A1, “METHODS AND COMPOSITIONS FOR TREATING NEURODEGENERATIVE DISEASES USING MODULATORS OF PHOSPHOGLYCERATE KINASE 1 (PGK1) ACTIVITY” (UNIVERSITY OF IOWA RESEARCH FOUNDATION, priority 2019, published 2022)
